From the NIST ThermoML archive (doi:10.1016/j.jct.2015.12.005)
Several values for one entry are separate records, joined by “and”; a condition that tells them apart may be missing. Identical values can stand only once.

Settings: for mass density: Vibrating tube method; for vapor or sublimation pressure: Twin ebulliometer; for Triple point temperature: Adiabatic calorimetry

c1ccc2c(c1)CCC2 [indane]
Settings | mass density [kg/m3] | molar entropy [J/K/mol] | vapor or sublimation pressure
5 K, Crystal 2, Vacuum adiabatic calorimetry | – | 0.09977 | –
10 K, Crystal 2, Vacuum adiabatic calorimetry | – | 0.873 | –
20 K, Crystal 2, Vacuum adiabatic calorimetry | – | 5.878 | –
30 K, Crystal 2, Vacuum adiabatic calorimetry | – | 13.6 | –
40 K, Crystal 2, Vacuum adiabatic calorimetry | – | 22.12 | –
50 K, Crystal 2, Vacuum adiabatic calorimetry | – | 30.71 | –
60 K, Crystal 2, Vacuum adiabatic calorimetry | – | 39.24 | –
62 K, Crystal 2, Vacuum adiabatic calorimetry | – | 40.96 | –
64 K, Crystal 2, Vacuum adiabatic calorimetry | – | 42.68 | –
66 K, Crystal 2, Vacuum adiabatic calorimetry | – | 44.42 | –
68 K, Crystal 2, Vacuum adiabatic calorimetry | – | 46.19 | –
70 K, Crystal 2, Vacuum adiabatic calorimetry | – | 48 | –
72 K, Crystal 2, Vacuum adiabatic calorimetry | – | 49.85 | –
73.83 K, Crystal 1, Vacuum adiabatic calorimetry | – | 53.65 | –
73.83 K, Crystal 2, Vacuum adiabatic calorimetry | – | 51.59 | –
74 K, Crystal 1, Vacuum adiabatic calorimetry | – | 53.79 | –
76 K, Crystal 1, Vacuum adiabatic calorimetry | – | 55.33 | –
78 K, Crystal 1, Vacuum adiabatic calorimetry | – | 56.85 | –
80 K, Crystal 1, Vacuum adiabatic calorimetry | – | 58.36 | –
90 K, Crystal 1, Vacuum adiabatic calorimetry | – | 65.61 | –
100 K, Crystal 1, Vacuum adiabatic calorimetry | – | 72.48 | –
120 K, Crystal 1, Vacuum adiabatic calorimetry | – | 85.36 | –
140 K, Crystal 1, Vacuum adiabatic calorimetry | – | 97.4 | –
160 K, Crystal 1, Vacuum adiabatic calorimetry | – | 108.88 | –
180 K, Crystal 1, Vacuum adiabatic calorimetry | – | 120 | –
200 K, Crystal 1, Vacuum adiabatic calorimetry | – | 130.94 | –
220 K, Crystal 1, Vacuum adiabatic calorimetry | – | 141.81 | –
221.79 K, Crystal 1, Vacuum adiabatic calorimetry | – | 142.78 | –
323.15 K, Liquid | 937.2 | – | –
338.12 K, Liquid | – | – | 2 kPa
344.12 K, Liquid | – | – | 2.666 kPa
348.15 K, Liquid | 915.6 | – | –
353.03 K, Liquid | – | – | 4 kPa
359.69 K, Liquid | – | – | 5.333 kPa
369.61 K, Liquid | – | – | 7.999 kPa
373.15 K, Liquid | 893.7 | – | –
377.06 K, Liquid | – | – | 10.67 kPa
383.1 K, Liquid | – | – | 13.33 kPa
389.37 K, Liquid | – | – | 16.66 kPa
394.58 K, Liquid | – | – | 19.93 kPa
398.15 K, Liquid | 871.2 | – | –
401.44 K, Liquid | – | – | 25.02 kPa and 25.02 kPa
408.36 K, Liquid | – | – | 31.17 kPa
415.33 K, Liquid | – | – | 38.56 kPa
422.35 K, Liquid | – | – | 47.37 kPa
423.15 K, Liquid | 848.5 | – | –
429.42 K, Liquid | – | – | 57.81 kPa
436.54 K, Liquid | – | – | 70.11 kPa
443.71 K, Liquid | – | – | 84.53 kPa
448.15 K, Liquid | 824.8 | – | –
450.93 K, Liquid | – | – | 101.32 kPa
458.2 K, Liquid | – | – | 120.78 kPa
465.53 K, Liquid | – | – | 143.23 kPa
472.9 K, Liquid | – | – | 169 kPa
473.15 K, Liquid | 799.8 | – | –
480.33 K, Liquid | – | – | 198.46 kPa
487.8 K, Liquid | – | – | 231.99 kPa
495.33 K, Liquid | – | – | 269.98 kPa
498.15 K, Liquid | 774 | – | –
523.15 K, Liquid | 745.8 | – | –

Liquid
Settings | molar entropy [J/K/mol]
221.79 K, Vacuum adiabatic calorimetry | 181.35
230 K, Vacuum adiabatic calorimetry | 187.35
240 K, Vacuum adiabatic calorimetry | 194.49
250 K, Vacuum adiabatic calorimetry | 201.46
260 K, Vacuum adiabatic calorimetry | 208.28
270 K, Vacuum adiabatic calorimetry | 214.98
280 K, Vacuum adiabatic calorimetry | 221.57
290 K, Vacuum adiabatic calorimetry | 228.06
298.15 K, Vacuum adiabatic calorimetry | 233.26
300 K, Vacuum adiabatic calorimetry | 234.44
310 K, Vacuum adiabatic calorimetry | 240.74
320 K, Vacuum adiabatic calorimetry | 246.96
330 K, Vacuum adiabatic calorimetry | 253.13
333.38 K, Vacuum adiabatic calorimetry | 255.19
340 K, Vacuum adiabatic calorimetry | 259.22
350 K, Vacuum adiabatic calorimetry | 265.26
360 K, Vacuum adiabatic calorimetry | 271.24
370 K, Vacuum adiabatic calorimetry | 277.19
380 K, Vacuum adiabatic calorimetry | 283.07
390 K, Vacuum adiabatic calorimetry | 288.92
400 K, Vacuum adiabatic calorimetry | 294.73
410 K, Vacuum adiabatic calorimetry | 300.49
420 K, Vacuum adiabatic calorimetry | 306.23
430 K, Vacuum adiabatic calorimetry | 311.92
440 K, Vacuum adiabatic calorimetry | 317.58
450 K, Small sample (50 mg) DSC | 323.22
460 K, Small sample (50 mg) DSC | 328.83
470 K, Small sample (50 mg) DSC | 334.43
480 K, Small sample (50 mg) DSC | 340.01
490 K, Small sample (50 mg) DSC | 345.57
500 K, Small sample (50 mg) DSC | 351.1
510 K, Small sample (50 mg) DSC | 356.62
520 K, Small sample (50 mg) DSC | 362.11
530 K, Small sample (50 mg) DSC | 367.58
540 K, Small sample (50 mg) DSC | 373.04
550 K, Small sample (50 mg) DSC | 378.48
560 K, Small sample (50 mg) DSC | 383.9
570 K, Small sample (50 mg) DSC | 389.31
580 K, Small sample (50 mg) DSC | 394.7
590 K, Small sample (50 mg) DSC | 400.08
600 K, Small sample (50 mg) DSC | 405.43

Settings | Triple point temperature [K]
Crystal 1 | 221.79
Crystal 2 | 73.83
